Structures are written as SMILES. Bounds are passed on as bounds.

The record followed here is patent US20220143183A1, “PHOTOSWITCHABLE PROTACS AND SYNTHESIS AND USES THEREOF” (New York University, priority 2019, published 2022).

One experiment deals with T1, FKBP12 (Homo sapiens, UniProt P62942).
T1 construct: endogenous in cells; host or cells: RS4;11 (ATCC CRL-1873)
Put plainly: Immunoblot of FKBP12 levels in RS4;11 cells. The format is cell-based. To be noted: for FKBP12 levels: 390 nm pulse irradiation (100 ms every 10 s); for hook effect in FKBP12 degradation: 4 h, different concentrations; for FKBP12 degradation: in the dark; for FKBP12 degradation with MLN4924: in the presence of MLN4924; for light activation among compounds targeting FKBP12: light vs dark. As for the experimental part:
FIG. 6 depicts optical control of FKBP12 degradation. A) Immunoblot analysis of FKBP12 after treatment of RS4;11 cells with PHOTAC-II-5 for 4 h at different concentrations. Cells were either irradiated with pulses of 390 nm light (left, 100 ms every 10 s) or kept in the dark (right). B) Time course of FKBP12 degradation visualized by immunoblotting. RS4;11 cells were treated with PHOTAC-II-5 (100 nM) and collected at the indicated time points. C) Immunoblot analysis of FKBP12 after treatment of RS4;11 cells with PHOTAC-II-6 for 4 h at different concentrations. Cells were either irradiated with pulses of 390 nm light (left, 100 ms every 10 s) or kept in the dark (right). D) Time course of FKBP12 degradation visualized by immunoblotting. RS4;11 cells were treated with PHOTAC-II-6 (100 nM) and collected at the indicated time points.
FIG. 15 depicts FKBP12 immunoblots in RS4;11 cells. […] B) Degradation of FKBP12. Immunoblot analysis of FKBP12 after treatment of RS4;11 cells with PHOTAC-II-1 for 4 h at different concentrations. Cells were either irradiated with 100 ms pulses of 390 nm light every 10 s (left) or kept the dark (right). C) Time course of FKBP12 degradation visualized by immunoblotting.
Amongst the molecules tested, PHOTAC-II-5 and PHOTAC-II-6 turned out to be the most useful, and the biological investigations have been focused on these molecules (for PHOTACs-II-1-4, see FIG. 16). […] The degradation was slower than in the case of BET proteins, but between 6 and 12 hours the protein was largely absent from the cell lysates (FIG. 6B). […] The time course of FKBP12 degradation by PHOTAC-II-6 was similar to the one observed with PHOTAC-II-5 (FIG. 6D).
(§1) Cells were incubated with different concentrations of selected compounds. They were placed in a light-proof box and preirradiated for 1 min at 390 nm followed by 100 ms pulses every 10 s or were kept in the dark for 4 h.
(§2) Cultured cells were collected by centrifugation and washed twice with cold PBS. The supernatant was removed and each cell pellet was lysed in 100 μL NP40-Cell-Lysis Buffer+0.1% SDS+1 mM PMSF+ protease inhibitor cocktail (Sigma Aldrich) for 30 min on ice, with vortexing at 10-minute intervals. Afterwards, cells were centrifuged at 13.000 rpm for 10 min at 4° C. Samples were stored on ice and the supernatant was collected for protein concentration determination using a Thermofisher Scientific Pierce™ Coomassie Plus (Bradford) Assay Kit.
(§3) The samples were diluted each with 5 μL Laemmli sample buffer Invitrogen (NuPAGE LDS Sample Buffer 4×) and 1 μL DTT, heated at 95° C. for 5 min. Respectively 20 μL of each sample was loaded in a lane of a Bio-Rad Mini-PROTEAN TGX precast Gel, 4-20%, used with tris-glycine SDS Running buffer. The gel ran 5 min at 50 V, then 35 min at 140 V. Next step was the electrotransfer to a polyvinylidene difluoride (PVDF) membrane which was carried out using an iBlot™ 2 Dry Blotting System set to the standard program. After the transfer, the membrane was washed with 25 mL TB ST for 5 min and subsequent incubated in 25 mL of blocking buffer (1×TBST+5% nonfat dry milk, Blotto, Santa Cruz Biotechnology) for 1 h at room temperature. The membrane was washed three times for 5 min each with 15 mL of TBST and incubated in a 10 mL antibody dilution buffer with gentle agitation at 4° C. overnight (Actin: 1:1000; c-MYC: 1:1000; BRD4: 1:1000). The next day, the membrane was washed again three times for 5 min each with 15 mL TBST, followed by incubation with anti-rabbit, HRP-linked antibody (1:2000) in 10 mL blocking buffer with gentle agitation for 1 h at room temperature. Afterwards, the membrane was washed three times for 5 min each with 15 mL TBST and then incubated in 10 mL of Clarity Max Western ECL Substrate solution for 5 min. Chemoluminescence imaging was performed on a Bio-Rad ChemiDoc™ Imaging System.
LED illumination. For illumination of the cells we used the cell disco system as previously described in the literature^[25]. […]
Background: Immunoblotting shows a protein as a band on a membrane.

A further experiment deals with BRD4 (Homo sapiens, UniProt O60885). Put plainly: Western blot of BRD4 levels in RS4;11 cells. It is filed as cell-based. The note with it: 4 h. Further details: endogenous in cells; host or cells: RS4;11 (ATCC CRL-1873). How it is done:
Next, the light dependence of targeted protein degradation was analyzed in RS4;11 cells by western blot analysis of the BET proteins BRD2-4 (FIG. 5). To this end, cells were treated with increasing concentrations of our lead compound, PHOTAC-I-3, for 4 h and pulse-irradiated with 390 nm light (100 ms every 10 s). […] The cereblon-dependent degradation was confirmed by a competition experiment (FIG. 5E), and further validated by siRNA knockdown of cereblon (FIG. 13).
Western Immunoblot Analysis. Rabbit monoclonal Antibodies for BRD4 (#13440), β-Actin (#4970) c-Myc (#5605) and Anti-rabbit IgG, HRP-linked Antibody (#7074) were purchased from Cell Signalling Technologies.
as §1, §2, §3
(§4) LED illumination. For illumination of the cells we used the cell disco system as previously described in the literature^[25]. 390 nm 5 mm LEDs were purchased from Roithner Lasertechnik. Cells were preirradiated for 1 min at 390 nm, followed by 100 ms pulses every 10 s in 96- or 6-well plates.

The subject of a further experiment is RS4;11 lymphoblast cells. Put plainly: Cell viability assay (Promega MTS), dark or pulsed irradiation. It is filed as cell-based, human. The note with it: 72 h, dark vs pulsed 390 nm irradiation. As for the experimental part:
Optical control of BRD2-4 with PHOTACs. To assess the biological activity of the PHOTACs, their effect on the viability of RS4;11 lymphoblast cells was tested. Cells were treated in a 96-well plate with increasing concentrations of PHOTACs and were either irradiated with 390 nm light pulses (100 ms every 10 s) for 72 h or incubated with the compound in the dark. Subsequently, cell viability assays (Promega MTS) were performed, as previously described.
Cell culture. The human acute lymphoblastic leukemia RS4;11 (ATCC® CRL-1873™) cell line was purchased from the American Type Culture Collection and cultured in RPMI1640 medium (Gibco) with 10% fetal bovine serum (FBS) and 1% penicillin/streptomycin (PS) in a humidified incubator at 37° C. with 5% CO2 in air. Cells were divided every 2-3 days and the concentration was maintained between 1×10^5 and 1×10^6 cells/mL. For the experiments compounds were serially diluted in RPMI160 without the dye phenol red (Gibco) to reduce the influence of the dye by absorption. Azobenzene stocks and dilutions were strictly kept in the dark and prepared under red light conditions.
Colorimetric MTT Assays. The activity of dehydrogenase enzymes in metabolically active cells, as a quantitative measurement for cytotoxicity and proliferation, was determined by colorimetric measurement of the reduction of [3-(4,5-dimethylthiazol-2-yl)-5-(3-carboxymethoxyphenyl)-2-(4-sulfophenyl)-2H-tetrazolium (MTS) to formazan. The absorbance of formazan at 490 nm was measured on a FLUOstar Omega microplate reader (BMG Labtech).
Cells were treated with different concentrations, ranging from 10 μM to 1 nM, of our compounds and incubated on a 96-well plate for 72 h. They were placed in light-proof boxes and exposed to the lighting conditions specified in the experiment for 72 h. Next, 10 μL of Promega CellTiter 96® AQueous One Solution Reagent was added to each well and incubated for further 4-7 hours. The absorbance at 490 nm was then recorded with a 96-well plate reader.
as §4

T1 sequence (P62942 whole entry): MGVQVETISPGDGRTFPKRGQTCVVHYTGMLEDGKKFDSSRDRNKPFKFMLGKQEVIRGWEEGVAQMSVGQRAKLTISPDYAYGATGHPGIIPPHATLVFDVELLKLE

On to `CCC(C)(C)C(=O)C(=O)N1CCCC[C@H]1C(=O)O[C@H](CCc1ccc(OC)c(OC)c1)c1cccc(OCC(=O)Nc2ccc(/N=N/c3ccc(NC(=O)COc4cccc5c4C(=O)N(C4CCC(=O)NC4=O)C5=O)cc3)cc2)c1` (stereo partly drawn) [PHOTAC-II-6, (1R)-3-(3,4-dimethoxyphenyl)-1-(3-(2-((4-((E)-(4-(2-((2-(2,6-dioxopiperidin-3-yl)-1,3-dioxoisoindolin-4-yl)oxy)acetamido)phenyl)diazenyl)phenyl)amino)-2-oxoethoxy)phenyl)propyl (2S)-1-(3,3-dimethyl-2-oxopentanoyl)piperidine-2-carboxylate], for which, at FKBP12, the FKBP12 levels entry was “light-dependent degradation”, the “hook effect in FKBP12 degradation” value is recorded as “pronounced “hook effect””, the FKBP12 degradation entry was “slight dark activity” and the “FKBP12 degradation with MLN4924” value is “inactive”. For the same molecule, the “light activation among compounds targeting FKBP12” value at FKBP12 is “largest light activation”.

For the molecule `CCC(C)(C)C(=O)C(=O)N1CCCC[C@H]1C(=O)O[C@H](CCc1ccc(OC)c(OC)c1)c1cccc(OCC(=O)NCCNC(=O)COc2ccc(/N=N\c3cccc4c3CN(C3CCC(=O)NC3=O)C4=O)cc2)c1` (stereo partly drawn) [PHOTAC-II-5, (1R)-3-(3,4-dimethoxyphenyl)-1-(3-(2-((2-(2-(4-((Z)-(2-(2,6-dioxopiperidin-3-yl)-1-oxoisoindolin-4-yl)diazenyl)phenoxy)acetamido)ethyl)amino)-2-oxoethoxy)phenyl)propyl (25)-1-(3,3-dimethyl-2-oxopentanoyl)piperidine-2-carboxylate], at FKBP12, the FKBP12 levels result is listed as “pronounced effect on FKBP12 levels”, the “hook effect in FKBP12 degradation” value is recorded as “pronounced “hook effect””, the FKBP12 degradation result was “no degradation could be observed in the dark” and the “FKBP12 degradation with MLN4924” value is “inactive”. Further, the “light activation among compounds targeting FKBP12” value at FKBP12 was “largest light activation”.

`COc1cc(/N=N/c2cccc3c2CN(C2CCC(=O)N(C)C2=O)C3=O)cc(OC)c1OCC(=O)NCCCCNC(=O)C[C@@H]1N=C(c2ccc(Cl)cc2)c2c(sc(C)c2C)-n2c(C)nnc21` (stereo partly drawn) [Me-PHOTAC-I-3, 2-((S)-4-(4-chlorophenyl)-2,3,9-trimethyl-6H-thieno[3,2-f][1,2,4]triazolo[4,3-a][1,4]diazepin-6-yl)-N-(4-(2-(2,6-dimethoxy-4-((E)-(2-(1-methyl-2,6-dioxopiperidin-3-yl)-1-oxoisoindolin-4-yl)diazenyl)phenoxy)acetamido)butyl)acetamide]: at BRD4 (390 nm pulses (100 ms every 10 s)), the BRD4 levels result is “inactive control”.

With `CCC(C)(C)C(=O)C(=O)N1CCCC[C@H]1C(=O)O[C@H](CCc1ccc(OC)c(OC)c1)c1cccc(OCC(=O)NCCCNC(=O)COc2c(OC)cc(/N=N\c3cccc4c3CN(C3CCC(=O)NC3=O)C4=O)cc2OC)c1` (stereo partly drawn) [PHOTAC-II-1, (1R)-3-(3,4-dimethoxyphenyl)-1-(3-(2-((3-(2-(4-((2-(2,6-dioxopiperidin-3-yl)-1-oxoisoindolin-4-yl)diazenyl)-2,6-dimethoxyphenoxy)acetamido)propyl)-amino)-2-oxoethoxy)phenyl)propyl-(2S)-1-(3,3-dimethyl-2-oxopentanoyl)-piperidine-2-carboxylate], at FKBP12, the FKBP12 levels entry was “slow, but sustained FKBP12 degradation over time” and the FKBP12 degradation result is “not when kept in the dark”.

Take `Cc1sc2c(c1C)C(c1ccc(Cl)cc1)=N[C@@H](CC(=O)Nc1ccc(/N=N/c3ccc(NC(=O)COc4cccc5c4C(=O)N(C4CCC(=O)NC4=O)C5=O)cc3)cc1)c1nnc(C)n1-2` (stereo partly drawn) [PHOTAC-I-10, 2-((S)-4-(4-chlorophenyl)-2,3,9-trimethyl-6H-thieno[3,2-f][1,2,4]triazolo[4,3-a][1,4]diazepin-6-yl)-N-(4-((E)-(4-(2-((2-(2,6-dioxopiperidin-3-yl)-1,3-dioxoisoindolin-4-yl)oxy)acetamido)phenyl)diazenyl)phenyl)acetamide]: in the experiment with RS4;11 lymphoblast cells, the “light dependence of activity in viability assay” value is listed as “light-dependent behavior”. Also, the “concentration at which robust photodegradation of BRD4 was found” value on BRD4 (390 nm pulses) was at most 10 nM. Moreover, the “hook effect in BRD4 degradation” value on BRD4 (different concentrations, 390 nm) was “clear hook-effect”.
